Test results as given in patent US8906888B2, “Low-calcemic 16,23-diene 25-oxime analogs of 1α,25-dihydroxy vitamin D3” (Cytochroma Inc., priority 2005, dated 2014).

Assays:
[1] = test system: LNCaP cells; experiment: [3H]-Thymidine proliferation assay with LNCaP cells; assay type: cell-based; conditions: prostate cancer cells, 3 days, 3H-thymidine incorporation
Method: 1. Preparation of Cell Suspension. • When LNCaP cells were 70-80% confluent, aspirated media. Washed the cells with 1×PBS. Trypsinized with trypsin-EDTA from the plate, collected cells from the tissue culture flask, centrifuged (500×g, 5 min) and resuspended in media.
2. Cell Plating. • Counted the cells and adjusted the cell density to 2,000/ml. Added 200 μl per well in a 96 well plate. Incubated plate for 24 h at 37° C. in a humidified atmosphere plus 5% CO2. Aspirated used media and replace with 175 μl per well with media.
(§1) 3. Substrate Addition. • Added 25 μl of compound (final concentration 10^−7 M, 5×10^−8 M, 10^−8 M, 5×10^−9 M, 10^−10 M or 0 M) into each designated well. Incubated plates for 3 days at 37° C. in a humidified atmosphere plus 5% CO2.
(§2) 4. ^3H-Thymidine Incorporation. • Added ^3H-thymidine at 0.02 μCi per well and incubated at 37° C. in a humidified atmosphere plus 5% CO2 for 6 h.
5. Plate Harvesting. • Aspirated all media. Trypsinized cells for 30 min at 37° C. in a humidified atmosphere plus 5% CO2. Harvested cells onto a 96 well filter plate (Millipore) using a Tomtec Cell Harvestor, according to manufacturers instructions.
6. Scintillation Counting. • Added 25 μl of scintillation fluid per well. Counted the plate using a scintillation counter. Results: Compound (20R)-I(e) inhibited LNCaP cell proliferation.

[2] = test system: MCF-7 cells; experiment: [3H]-Thymidine proliferation assay with MCF-7 cells; assay type: cell-based; conditions: breast cancer cells, 3 days, 3H-thymidine incorporation
Method: 1. Preparation of Cell Suspension. • When MCF-7 cells were 70-80% confluent, aspirated growth media. Washed the cells with 1×PBS. Trypsinized with trypsin-EDTA from the plate, collected cells from the tissue culture flask, centrifuged (500×g, 5 min) and resuspended in growth media.
2. Cell Plating. • Counted the cells and adjusted the cell density to 25,000/ml. Added 200 μl per well in a 96 well plate. Incubated plate for 24 h at 37° C. in a humidified atmosphere plus 5% CO2. Aspirated used media and replaced with 175 μl per well with proliferation media.
as §1, §2
5. Plate Harvesting. • Aspirated all media and washed cells with 1×PBS. Trypsinized cells for 30 min at 37° C. in a humidified atmosphere plus 5% CO2. Harvested cells onto a 96 well filter plate (Millipore) using a Tomtec Cell Harvestor, according to manufacturers instructions.
6. Scintillation Counting. • Added 25 μl of scintillation fluid per well. Counted the plate using a scintillation counter. Results: Compound (20R)-I(e) inhibited MCF-7 cell proliferation.

[3] = target: T1, DBP (vitamin D binding protein) (Homo sapiens, UniProt P02774); experiment: DBP binding assay (human plasma, [3H]-25(OH)D3 displacement); conditions: human plasma diluted 1:5000; read-out: B50 (DBP binding, displacement of 50 percent [3H]-25(OH)D3)
T1 construct: Human plasma diluted to 1:5000 with Tris buffer/gelatin solution; from tissue; host or cells: human plasma
T1 sequence (P02774 17-474): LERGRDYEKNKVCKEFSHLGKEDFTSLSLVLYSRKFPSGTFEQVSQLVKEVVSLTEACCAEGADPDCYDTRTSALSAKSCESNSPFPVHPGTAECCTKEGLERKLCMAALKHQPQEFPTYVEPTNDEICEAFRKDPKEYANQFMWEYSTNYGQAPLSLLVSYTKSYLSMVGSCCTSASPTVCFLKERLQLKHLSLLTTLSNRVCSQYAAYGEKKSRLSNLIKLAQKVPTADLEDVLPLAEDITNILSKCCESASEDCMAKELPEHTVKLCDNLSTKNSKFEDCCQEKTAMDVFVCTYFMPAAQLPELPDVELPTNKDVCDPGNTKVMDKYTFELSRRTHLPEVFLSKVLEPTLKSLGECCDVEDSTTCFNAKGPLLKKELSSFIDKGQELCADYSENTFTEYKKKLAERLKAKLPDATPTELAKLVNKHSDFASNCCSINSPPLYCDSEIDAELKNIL
Method: 1. Tris buffer: • 22.50 g Tris-HCI • 500 ml H2O
5. DBP (vitamin D binding protein) (human plasma)
2. Dextran Coated Charcoal Solution • (1) preparation of charcoal solution • Norit decolorizing neutral charcoal 2.0 g • Tris buffer 150 mL • Stirring • (2) preparation of dextran solution • Dextran T—70 0.2 g • Tris buffer 50 ml • (3) preparation of dextran coated charcoal solution • Slowly dripped the dextran solution into charcoal solution with stirring. • Kept refrigerated overnight. • Thirty minute before use, kept it on ice with continuous mixing. • This solution can be kept in 4° C. for 2 month.
4. DBP Solution • Human plasma diluted to 1:5000 with Tris buffer/gelatin solution
8. [^3H-26,27]-[…] Solution • Stock solution diluted in Tris buffer, 20,000 CPM/50 μl. (C) Assay
(D) Calculation: • The amount of 25(OH)D3 to displace 50 percent [3H]-25(OH)D3 was calculated as B50 for 25(OH)D3 DBP binding. The DBP binding of other compounds was calculated as B50 relative to a value of 1 for 25(OH)D3.

IC50 [3]: > 3.5 µM
Structure (SMILES): C=C1/C(=C\C=C2/CCC[C@]3(C)C([C@H](C)C/C=C/C(=NOC)C(C)(C)C)=CC[C@@H]23)C[C@@H](O)C[C@@H]1O [(20R)-I(e)]
Inhibition of LNCaP cell proliferation [1]: inhibited
Inhibition of MCF-7 cell proliferation [2]: inhibited
